Source: PubChem BioAssay AID2060499 (Molecular Pharmacology Branch, DTP, NCI, 2025)

System: 777334-354-R2-J4-PDC tumor spheroids with HUVEC/MSC, viability
Assay: Anticancer human tumor 777334-354-R2-J4-PDC patient-derived pancreatic adenocarcinoma cell line growth inhibition [GQUAD]
Conditions: for IC50: curve of first compound; for viability, T/C: stronger effect = lower value
Procedure, shortened: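 Multi-cell-type spheroids of tumor cells with HUVEC and mesenchymal stem cells, treated with drug combinations. Concentrations descend in half-log steps from near clinical Cmax, or from 10 microM where Cmax is unknown; viability read-out.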

[1] = second compound 0.0316 µM, first compound 0.0316 µM
[2] = second compound 0.0316 µM, first compound 0.1 µM
[3] = second compound 0.0316 µM, first compound 0.316 µM
[4] = second compound 0.0316 µM, first compound 1 µM
[5] = second compound 0.0316 µM, first compound 3.16 µM
[6] = second compound 0.0316 µM, first compound 10 µM
[7] = second compound 0.1 µM, first compound 0.0316 µM
[8] = second compound 0.1 µM, first compound 0.1 µM
[9] = second compound 0.1 µM, first compound 0.316 µM
[10] = second compound 0.1 µM, first compound 1 µM
[11] = second compound 0.1 µM, first compound 3.16 µM
[12] = second compound 0.1 µM, first compound 10 µM
[13] = second compound 0.316 µM, first compound 0.0316 µM
[14] = second compound 0.316 µM, first compound 0.1 µM
[15] = second compound 0.316 µM, first compound 0.316 µM
[16] = second compound 0.316 µM, first compound 1 µM
[17] = second compound 0.316 µM, first compound 3.16 µM
[18] = second compound 0.316 µM, first compound 10 µM
[19] = second compound 1 µM, first compound 0.0316 µM
[20] = second compound 1 µM, first compound 0.1 µM
[21] = second compound 1 µM, first compound 0.316 µM
[22] = second compound 1 µM, first compound 1 µM
[23] = second compound 1 µM, first compound 3.16 µM
[24] = second compound 1 µM, first compound 10 µM
[25] = second compound 3.16 µM, first compound 0.0316 µM
[26] = second compound 3.16 µM, first compound 0.1 µM
[27] = second compound 3.16 µM, first compound 0.316 µM
[28] = second compound 3.16 µM, first compound 1 µM
[29] = second compound 3.16 µM, first compound 3.16 µM
[30] = second compound 3.16 µM, first compound 10 µM
[31] = second compound 10 µM, first compound 0.0316 µM
[32] = second compound 10 µM, first compound 0.1 µM
[33] = second compound 10 µM, first compound 0.316 µM
[34] = second compound 10 µM, first compound 1 µM
[35] = second compound 10 µM, first compound 3.16 µM
[36] = second compound 10 µM, first compound 10 µM
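Also: spheroids exposed to compounds for 7 days before readout.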

With `COc1cccc2c1C(=O)c1c(O)c3c(c(O)c1C2=O)CC(O)(C(=O)CO)CC3OC1CC(N)C(O)C(C)O1` (stereo unspecified) + CN(C)c1ccc(Nc2c3ccc(NC(=O)CCN4CCCC4)cc3nc3cc(NC(=O)CCN4CCCC4)ccc23)cc1 the IC50 (second compound 0.0316 µM) was 909 nM, the IC50 (second compound 0.1 µM) was 841 nM and the IC50 (second compound 0.316 µM) was 783 nM. The IC50 (second compound 1 µM) was 679 nM, the IC50 (second compound 3.16 µM) was 633 nM and the IC50 (second compound 10 µM) was 858 nM. It also gave a viability, T/C [1] of 109%, a viability, T/C [2] of 84.4% and a viability, T/C [3] of 74.2%. The viability, T/C [4] was 49.3%, the viability, T/C [5] was 25.2% and the viability, T/C [6] was 9.52%. For the same molecule, the viability, T/C [7] was 100%, the viability, T/C [8] was 85.3% and the viability, T/C [9] was 71.2%. The viability, T/C [10] was 47.1%, the viability, T/C [11] was 24.5% and the viability, T/C [12] was 13.8%. The viability, T/C [13] was 107%, the viability, T/C [14] was 78.9% and the viability, T/C [15] was 70.1%. It also gave a viability, T/C [16] of 47.9%, a viability, T/C [17] of 23.6% and a viability, T/C [18] of 14%. It also gave a viability, T/C [19] of 89.7%, a viability, T/C [20] of 74.7% and a viability, T/C [21] of 66.5%. It also gave a viability, T/C [22] of 42.9%, a viability, T/C [23] of 23.2% and a viability, T/C [24] of 12.2%. The viability, T/C [25] was 83.7%, the viability, T/C [26] was 76.5% and the viability, T/C [27] was 55%. For the same molecule, the viability, T/C [28] was 48.4%, the viability, T/C [29] was 25% and the viability, T/C [30] was 15.2%. The viability, T/C [31] was 77%, the viability, T/C [32] was 78.2% and the viability, T/C [33] was 64%. The viability, T/C [34] was 50%, the viability, T/C [35] was 22.3% and the viability, T/C [36] was 14%.

`Nc1ccn(C2OC(CO)C(O)C2(F)F)c(=O)n1` (stereo unspecified) + CN(C)c1ccc(Nc2c3ccc(NC(=O)CCN4CCCC4)cc3nc3cc(NC(=O)CCN4CCCC4)ccc23)cc1 was tested, and the IC50 (second compound 0.0316 µM) was 557 nM, the IC50 (second compound 0.1 µM) was 402 nM and the IC50 (second compound 0.316 µM) was 326 nM. The IC50 (second compound 1 µM) was 171 nM, the IC50 (second compound 3.16 µM) was 150 nM and the IC50 (second compound 10 µM) was 77.9 nM. The viability, T/C [1] was 80.7%, the viability, T/C [2] was 67.8% and the viability, T/C [3] was 54.4%. It also gave a viability, T/C [4] of 44.3%, a viability, T/C [5] of 37.5% and a viability, T/C [6] of 27.3%. For the same molecule, the viability, T/C [7] was 80.5%, the viability, T/C [8] was 71.5% and the viability, T/C [9] was 51.5%. It also gave a viability, T/C [10] of 39.1%, a viability, T/C [11] of 32.6% and a viability, T/C [12] of 27.4%. It also gave a viability, T/C [13] of 68.5%, a viability, T/C [14] of 65.8% and a viability, T/C [15] of 45.4%. For the same molecule, the viability, T/C [16] was 40.5%, the viability, T/C [17] was 33.2% and the viability, T/C [18] was 23.4%. For the same molecule, the viability, T/C [19] was 76.2%, the viability, T/C [20] was 55.3% and the viability, T/C [21] was 42.2%. It also gave a viability, T/C [22] of 34.4%, a viability, T/C [23] of 30.1% and a viability, T/C [24] of 22.9%. The viability, T/C [25] was 67.4%, the viability, T/C [26] was 51.8% and the viability, T/C [27] was 43.5%. For the same molecule, the viability, T/C [28] was 33.7%, the viability, T/C [29] was 32.4% and the viability, T/C [30] was 22.2%. For the same molecule, the viability, T/C [31] was 59.5%, the viability, T/C [32] was 49.5% and the viability, T/C [33] was 33.9%. The viability, T/C [34] was 30.5%, the viability, T/C [35] was 30.3% and the viability, T/C [36] was 18.5%.

In the case of `O=c1[nH]cc(F)c(=O)[nH]1` + CN(C)c1ccc(Nc2c3ccc(NC(=O)CCN4CCCC4)cc3nc3cc(NC(=O)CCN4CCCC4)ccc23)cc1, the IC50 (second compound 0.0316 µM) is reported as > 10000 nM, the IC50 (second compound 0.1 µM) is reported as > 10000 nM and the IC50 (second compound 0.316 µM) is reported as > 10000 nM. For the same molecule, the IC50 (second compound 1 µM) was > 10000 nM, the IC50 (second compound 3.16 µM) was > 10000 nM and the IC50 (second compound 10 µM) was 8210 nM. For the same molecule, the viability, T/C [1] was 91.7%, the viability, T/C [2] was 92% and the viability, T/C [3] was 99.9%. It also gave a viability, T/C [4] of 84.2%, a viability, T/C [5] of 66.7% and a viability, T/C [6] of 55.3%. It also gave a viability, T/C [7] of 96.8%, a viability, T/C [8] of 96.8% and a viability, T/C [9] of 92.3%. For the same molecule, the viability, T/C [10] was 90.7%, the viability, T/C [11] was 80.3% and the viability, T/C [12] was 60%. It also gave a viability, T/C [13] of 92.6%, a viability, T/C [14] of 91% and a viability, T/C [15] of 96.3%. It also gave a viability, T/C [16] of 87.1%, a viability, T/C [17] of 72.4% and a viability, T/C [18] of 54.7%. The viability, T/C [19] was 99.3%, the viability, T/C [20] was 88.5% and the viability, T/C [21] was 82.8%. It also gave a viability, T/C [22] of 70.6%, a viability, T/C [23] of 65.9% and a viability, T/C [24] of 55%. For the same molecule, the viability, T/C [25] was 93.2%, the viability, T/C [26] was 81.6% and the viability, T/C [27] was 79.2%. For the same molecule, the viability, T/C [28] was 77.8%, the viability, T/C [29] was 71.1% and the viability, T/C [30] was 54.2%. For the same molecule, the viability, T/C [31] was 76.6%, the viability, T/C [32] was 79.1% and the viability, T/C [33] was 76.8%. For the same molecule, the viability, T/C [34] was 71.4%, the viability, T/C [35] was 60.9% and the viability, T/C [36] was 47.7%.
